# Earlier results, collected in patent US20250268985A1, “BCL2 INHIBITOR AND PEPTIDE COMBINATION THERAPY FOR TREATING PROLIFERATIVE DISEASES” (IMMUNE SYSTEM KEY LTD., priority 2022, published 2025).
smiles,measurement,value
"CN(C)CC[C@H](CSc1ccccc1)Nc1ccc(S(=O)(=O)NC(=O)c2ccc(N3CCN(Cc4ccccc4-c4ccc(Cl)cc4)CC3)cc2)cc1[N+](=O)[O-] [ABT-737, 4-{4-[(4′-Chloro[1,1′-biphenyl]-2-yl)methyl]piperazin-1-yl}-N-(4-{[(2R)-4-(dimethylamino)-1-(phenylsulfanyl)butan-2-yl]ami-no}-3-nitrobenzene-1-sulfonyl)benzamide]",bioavailability after oral administration,not bioavailable
